Data as given in ChEMBL document CHEMBL5038634, “Virtual Screening Directly Identifies New Fragment-Sized Inhibitors of Carboxylesterase Notum with Nanomolar Activity” (J Med Chem, 2022).
In brackets after ≈: the same amount, converted by molar mass. Several values for one entry are separate records, joined by “and”; a condition that tells them apart may be missing. Equal values may be shown once.

Columns and labels:
[1] = molecular target: T1, Palmitoleoyl-protein carboxylesterase NOTUM (Homo sapiens, UniProt Q6P988, C330S); experiment: Inhibition of Notum (81 to 451 Cys330Ser) in HEK293T cells expressing TCF-LEF assessed as activation of Wnt signaling using WNT3A as substrate incubated for […] by Steady-Glo luciferase assay; assay type: cell-based
[2] = molecular target: T1, Palmitoleoyl-protein carboxylesterase NOTUM; experiment: Inhibition of human Notum (81 to 451 Cys330Ser) using OPTS as substrate incubated for 40 mins by fluorescence based assay
[3] = Drug concentration in C57BL/6J mouse brain at 0.4 mg/kg, iv measured at 1 hr by LC-MS/MS analysis; assay type: ADME, organism-based; settings: read-out: Drug uptake
[4] = AUC (all) in C57BL/6J mouse at 0.4 mg/kg, iv measured at 0.08 to 24 hrs by LC-MS/MS analysis; assay type: ADME, organism-based; set-up: route intravenous, time 0.08-24 hrs, dose 0.4 mg/kg; settings: in vivo
[5] = Half life in C57BL/6J mouse at 0.4 mg/kg, iv measured at 0.08 to 24 hrs by LC-MS/MS analysis; assay type: ADME, organism-based; settings: in vivo, time 0.08-24 hrs
[6] = Volume of distribution at steady state in C57BL/6J mouse at 0.4 mg/kg, iv measured at 0.08 to 24 hrs by LC-MS/MS analysis; assay type: ADME, organism-based; settings: in vivo, time 0.08-24 hrs, read-out: Vdss
HEK-293T [7] = experiment: Cytotoxicity against HEK293T cells expressing TCF-LEF assessed as effect on total cell number by GFP based assay; assay type: toxicity; settings: human
[8] = Drug concentration in C57BL/6J mouse brain at 0.4 mg/kg, iv measured at 4 hrs by LC-MS/MS analysis; assay type: ADME, organism-based; settings: read-out: Drug uptake
[9] = AUC (infinity) in C57BL/6J mouse at 0.4 mg/kg, iv measured at 0.08 to 24 hrs by LC-MS/MS analysis; assay type: ADME, organism-based; set-up: route intravenous, time upper 24 hrs, time lower 0.08 hrs, dose 0.4 mg/kg; settings: in vivo
[10] = Clearance in C57BL/6J mouse at 0.4 mg/kg, iv measured at 0.08 to 24 hrs by LC-MS/MS analysis; assay type: ADME, organism-based; settings: in vivo, time 0.08-24 hrs
HEK-293T [11] = experiment: Cytotoxicity against HEK293T cells expressing TCF-LEF assessed as adverse effects on cell health by Cell Titre Glo assay; assay type: toxicity, cell-based; settings: human
[12] = C0 in C57BL/6J mouse at 0.4 mg/kg, iv measured at 0.08 to 24 hrs by LC-MS/MS analysis; assay type: ADME, organism-based; settings: in vivo, time 0.08-24 hrs
[13] = Intrinsic clearance in mouse liver microsome at 1 uM incubated upto 60 mins in presence of NADPH by LC-MS/MS analysis; assay type: ADME; settings: liver microsomes, read-out: CLH
[14] = Acidic dissociation constant, pKa of the compound at pH 7.4; assay type: physicochemical
[15] = Plasma protein binding in CD-1 mouse at 2 uM by Equilibrium dialysis method; assay type: ADME, cell-free; settings: read-out: PPB (converted)
[16] = Aqueous solubility of the compound at pH 7.4 in pION buffer at 500uM incubated for 18 hrs by spectrophotometry analysis; assay type: physicochemical
[17] = Apparent permeability from basolateral to apical side in dog MDCKII-MDR1 cells at 10 uM incubated upto 120 mins by LC-MS/MS analysis; assay type: ADME, cell-based, Canis lupus familiaris; settings: MDCK-MDR1
[18] = Apparent permeability from apical to basolateral side in dog MDCKII-MDR1 cells at 10 uM incubated upto 120 mins by LC-MS/MS analysis; assay type: ADME, cell-based, Canis lupus familiaris; settings: MDCK-MDR1
[19] = Plasma protein binding in CD-1 mouse assessed as unbound fraction at 2 uM by Equilibrium dialysis method; assay type: ADME, cell-free
[20] = Stability in mouse liver microsome assessed as half life at 1 uM incubated upto 60 mins in presence of NADPH by LC-MS/MS analysis; assay type: ADME; settings: liver microsomes
[21] = Apparent permeability in MDCKII-MDR1 cells assessed as compound recovery at 10 uM incubated upto 120 mins by LC-MS/MS analysis; assay type: ADME, cell-based, Canis lupus familiaris; settings: dog, MDCK-MDR1, read-out: Activity

Compound	EC50 [1]	IC50 [2]	also measured
O=c1[nH]nc2ccc(Sc3ccc(C(F)(F)F)cc3)nn12	300 nM	28 nM	
O=c1[nH]nc2ccc(Sc3ccc(Cl)c(Cl)c3)nn12	110 nM	5 nM	concentration at 1 h [3]: < 5 ng/mL; AUC [4]: 360 ng·h/mL; half-life [5]: 42 min; Vd [6]: 0.7 L/kg; Activity (HEK-293T [7]): Non-Toxic; concentration at 4 h [8]: < 5 ng/mL; AUC(0-inf) [9]: 370 ng·h/mL; clearance [10]: 17.8 mL/min/kg; Activity (HEK-293T [11]): Non-Toxic; C0 [12]: 1580 ng/mL
Cc1ccc(Sc2ccc3n[nH]c(=O)n3n2)nc1		3600 nM	
Cc1ccc(/C=C2/N=C(c3cccc(Cl)c3Cl)OC2=O)o1		22 nM	
O=c1[nH]nc2ccc(Sc3cccc(C(F)(F)F)n3)nn12	> 10000 nM	410 nM	
O=c1[nH]nc2ccc(Sc3ccccc3F)nn12	1100 nM	87 nM	
O=c1[nH]nc2ccc(Sc3ccccc3C(F)(F)F)nn12	930 nM	89 nM	
COc1ccc(/C=C2/N=C(c3cccc(Cl)c3Cl)OC2=O)c(OC)c1		> 10000 nM	
O=c1[nH]nc2ccc(Sc3cccc(F)c3)nn12	260 nM	30 nM	
Cc1cccc(Sc2ccc3n[nH]c(=O)n3n2)n1	> 10000 nM	650 nM	
Cc1cccc(Sc2ccc3n[nH]c(=O)n3n2)c1	240 nM	9 nM	
O=c1[nH]nc2ccc(Sc3ccc(F)c(F)c3)nn12	1100 nM	120 nM	
Cc1ccc(Sc2ccc3n[nH]c(=O)n3n2)cc1C	130 nM	7 nM	
O=C1OC(c2cccc(Cl)c2Cl)=N/C1=C/c1ccco1		12 nM	
Cc1ccccc1COc1nn2c(=O)c(C)nnc2s1		320 nM and 1600 nM	
O=c1[nH]nc2ccc(Sc3ccccc3Cl)nn12	720 nM	30 nM	
O=c1[nH]nc2ccc(Sc3cccc(OC(F)(F)F)c3)nn12	34 nM	4 nM	concentration at 1 h [3]: < 5 ng/mL; AUC [4]: 270 ng·h/mL; half-life [5]: 6 min; Vd [6]: 0.2 L/kg; Activity (HEK-293T [7]): Non-Toxic; concentration at 4 h [8]: < 5 ng/mL; AUC(0-inf) [9]: 270 ng·h/mL; clearance [10]: 24.8 mL/min/kg; Activity (HEK-293T [11]): Non-Toxic; C0 [12]: 1900 ng/mL
O=c1[nH]nc2ccc(Sc3cccc(Cl)c3)nn12	88 nM	6 nM	concentration at 1 h [3]: < 5 ng/mL; AUC [4]: 300 ng·h/mL; half-life [5]: 18 min; Vd [6]: 0.3 L/kg; Activity (HEK-293T [7]): Non-Toxic; concentration at 4 h [8]: < 5 ng/mL; AUC(0-inf) [9]: 300 ng·h/mL; clearance [10]: 22.2 mL/min/kg; Activity (HEK-293T [11]): Non-Toxic; C0 [12]: 1750 ng/mL
O=c1[nH]nc2ccc(Sc3ccc(Cl)cc3)nn12	310 nM	21 nM	
Cc1ccc(Sc2ccc3n[nH]c(=O)n3n2)cc1	86 nM	27 nM	concentration at 1 h [3]: < 5 ng/mL; AUC [4]: 2330 ng·h/mL; microsomal CLint at 1 µM [13]: 21 µL/min/mg; half-life [5]: 36 min; pKa [14]: 7.9; fraction unbound at 2 µM [15]: 0.012; Vd [6]: 0.1 L/kg; Activity (HEK-293T [7]): Non-Toxic; concentration at 4 h [8]: < 5 ng/mL; AUC(0-inf) [9]: 2350 ng·h/mL; solubility at 18 h, 500 µM [16]: 32 µg/mL and 120 µM; Papp B→A at 2 h, 10 µM [17]: 43 ×10⁻⁶ cm/s; clearance [10]: 2.8 mL/min/kg; Activity (HEK-293T [11]): Non-Toxic; Papp A→B at 2 h, 10 µM [18]: 52 ×10⁻⁶ cm/s; C0 [12]: 2620 ng/mL; fraction unbound at 2 µM [19]: 0.011
Cc1ccc(/C=C2\N=C(c3ccc(C)c(C)c3)OC2=O)o1		17 nM	half-life at 1 µM [20]: 360 min; microsomal CLint at 1 µM [13]: 1.9 µL/min/mg; solubility at 18 h, 500 µM [16]: 0.31 µg/mL (≈ 1.1 µM); recovery at 2 h, 10 µM [21]: < 25%
O=c1[nH]nc2ccc(Sc3ccccc3)nn12		150 nM	
Cc1ccc(Oc2ccc3n[nH]c(=O)n3n2)cc1		3100 nM	
O=C1OC(c2cccc3ccccc23)=N/C1=C/c1ccco1		100 nM	
Cc1ccccc1Sc1ccc2n[nH]c(=O)n2n1	300 nM	50 nM	
Cc1cc(C)cc(Sc2ccc3n[nH]c(=O)n3n2)c1		47 nM	
COC(=O)CCC(=O)N1CCc2ccccc21		90 nM	
O=C1OC(c2ccc(Cl)cc2Cl)=N/C1=C/c1ccco1		48 nM	

Compound	EC50 [1]	IC50 [2]	also measured
Cc1ccc(S(=O)(=O)c2ccc3n[nH]c(=O)n3n2)cc1		> 10000 nM	
COc1cccc(Sc2ccc3n[nH]c(=O)n3n2)c1	140 nM	15 nM	
Cc1ccc(Sc2ccc3nn(C)c(=O)n3n2)cc1		> 10000 nM	
Cc1ccc(C2=N/C(=C/c3ccccc3)C(=O)O2)cc1C		200 nM	
O=c1[nH]nc2ccc(Sc3cccc(Cl)c3Cl)nn12	150 nM	13 nM	
Cc1ccc(Nc2ccc3n[nH]c(=O)n3n2)cc1		690 nM	
O=c1[nH]nc2ccc(Sc3ncccn3)nn12		> 10000 nM	
O=c1[nH]nc2ccc(Sc3ccc(F)cc3)nn12	540 nM	94 nM	
O=c1[nH]nc2ccc(Sc3ccc(Cl)cc3Cl)nn12	380 nM	20 nM	
Cc1ccc(/C=C2/N=C(c3ccc(C)c(C)c3)OC2=O)o1		8.5 nM	
O=c1[nH]nc2ccc(Sc3cccc(C(F)(F)F)c3)nn12	190 nM	17 nM	
O=c1[nH]nc2ccc(Sc3cccc(F)c3F)nn12		63 nM	
Cc1ccc([S+]([O-])c2ccc3n[nH]c(=O)n3n2)cc1 (stereo unspecified)		> 10000 nM	
O=C1OC(c2cccc(Cl)c2Cl)=N/C1=C/c1cccs1		54 nM	
CC(C)Oc1cccc(Sc2ccc3n[nH]c(=O)n3n2)c1	260 nM	25 nM	
CSc1cccc(Sc2ccc3n[nH]c(=O)n3n2)c1	380 nM	24 nM	
Cc1cccc(Sc2ccc3n[nH]c(=O)n3n2)c1C		14 nM	
Cc1ccnc(Sc2ccc3n[nH]c(=O)n3n2)c1		2700 nM	
Cc1ccc(Sc2nn3c(=O)[nH]nc3c(C)c2C)cc1		> 10000 nM	
Cc1ccc(C2=N/C(=C/c3cccs3)C(=O)O2)cc1C		24 nM	
CCOc1cccc(Sc2ccc3n[nH]c(=O)n3n2)c1	150 nM	20 nM	
Cc1ccc(Sc2ccc3n[nH]c(=O)n3n2)c(C)c1	300 nM	27 nM	
Cc1ccc(Cc2ccc3n[nH]c(=O)n3n2)cc1		240 nM	
O=C1OC(c2ccc(Cl)cc2Cl)=N/C1=C\c1ccco1		14 nM	
Cc1ccc(N(C)c2ccc3n[nH]c(=O)n3n2)cc1		990 nM	
Cc1ccc(Sc2cc(C)c3n[nH]c(=O)n3n2)cc1		70 nM	
O=c1[nH]nc2ccc(Sc3ccncn3)nn12		> 10000 nM	
